Drawing on paper PMC7160333, “Physiological Role of Glutamate Dehydrogenase in Cancer Cells” (Frontiers in Oncology, 2020), this text covers Duplication time, Maximal cellular densities and IC50 for one compound.

One may read the IC50 as the concentration that inhibits the measured activity by half.

In the experiment the test system is HFF-1 fibroblasts. As to conditions: for Duplication time: HFF-1, 2-D culture, n = 3; for Maximal cellular densities: reached at day 5.

Like-named read-outs stand apart in the source and are kept apart here.

Method: All cancer and non-cancer cell lines used were purchased from ATCC and cultured in DMEM (Sigma-Aldrich) supplemented with 10% fetal bovine serum (Biowest, Nuaillé, France) and 10,000 U penicillin/streptomycin (Sigma-Aldrich) and placed under a humidified atmosphere of 5% CO2/95% air at 37°C.
Cell growth was followed by counting cellular density every 24 h during 7 to 8 days. […] The duplication time was determined by using the following equation: n=1/[3.32(logNF-logNI)]/(tF-tI) , where NF represents the number of cultured cells at the end of the exponential growth phase; NI represents the number of cells at the beginning of the growth curve; tF is the final time at which cells were harvested, and tI is the initial culture time. The specific growth rate μ was calculated from the slope of a semilogarithmic plot of cell densities in the exponential growth phase vs. time ([88]).

`Cl.N` [NH4Cl, Ammonium chloride]: the Duplication time (+5 mM NH4Cl) turned out to be 38 ± 12 h and the Duplication time (+10 mM NH4Cl) was determined as 55 ± 2 h. Also, the Maximal cellular densities was 60 ± 10 ×10^3 (HFF-1, +5 mM NH4Cl) and 46 ± 3 ×10^3 (HFF-1, +10 mM NH4Cl). Moreover, the IC50 (read-out: IC50 for decrease of growth, human HFF-1 fibroblasts, data not shown) was approximately 1000 µM.
